Source: ChEMBL document CHEMBL3046589, “Synthesis and Fungicidal Activities of (-Methoxybenzyl) isoxazoles” (2000)

Legend:
Type in all cases: functional
[1] = test system: Pseudoperonospora cubensis; assay: Preventive fungicidal activity against Pseudoperonospora cubensis infected cucumber leaves at 500 ppm after by foliar application method
Podosphaera fuliginea [2] = assay: Preventive fungicidal activity against Podosphaera fuliginea infected cucumber leaves at 31.3 ppm after by foliar application method
Botrytis cinerea = assay: Preventive fungicidal activity against Botryotinia fuckeliana infected cucumber leaves at 500 ppm after by foliar application method
Podosphaera fuliginea [3] = assay: Preventive fungicidal activity against Podosphaera fuliginea infected cucumber leaves at 500 ppm after by foliar application method
Podosphaera fuliginea [4] = assay: Curative fungicidal activity against Podosphaera fuliginea infected cucumber leaves at 7.8 ppm after by foliar application method
Podosphaera fuliginea [5] = assay: Preventive fungicidal activity against Podosphaera fuliginea infected cucumber leaves at 7.8 ppm after by foliar application method
[6] = test system: Pseudoperonospora cubensis; assay: Curative fungicidal activity against Pseudoperonospora cubensis infected cucumber leaves at 31.3 ppm after by foliar application method
[7] = test system: Pseudoperonospora cubensis; assay: Curative fungicidal activity against Pseudoperonospora cubensis infected cucumber leaves at 7.8 ppm after by foliar application method
[8] = test system: Pseudoperonospora cubensis; assay: Preventive fungicidal activity against Pseudoperonospora cubensis infected cucumber leaves at 7.8 ppm after by foliar application method
[9] = test system: Pseudoperonospora cubensis; assay: Preventive fungicidal activity against Pseudoperonospora cubensis infected cucumber leaves at 31.3 ppm after by foliar application method
Podosphaera fuliginea [10] = assay: Curative fungicidal activity against Podosphaera fuliginea infected cucumber leaves at 31.3 ppm after by foliar application method
Podosphaera fuliginea [11] = assay: Preventive fungicidal activity against Podosphaera fuliginea infected cucumber leaves at 125 ppm after by foliar application method
Myzus persicae [12] = assay: Insecticidal activity against Myzus persicae (green peach aphid) nymphs fed with Chinese cabbage leaf assessed as mortality at 62.5 ppm applied through spraying measured after 48 hr
Myzus persicae [13] = assay: Insecticidal activity against Myzus persicae (green peach aphid) nymphs fed with chinese cabbage leaf assessed as mortality at 15.6 ppm applied through spraying measured after 48 hr
Myzus persicae [14] = assay: Insecticidal activity against Myzus persicae (green peach aphid) nymphs fed with Chinese cabbage leaf assessed as mortality at 250 ppm applied through spraying measured after 48 hr
[15] = test system: Pseudoperonospora cubensis; assay: Preventive fungicidal activity against Pseudoperonospora cubensis infected cucumber leaves at 125 ppm after by foliar application method

**Q.** How did the Activity [1] turn out when `COC(c1cc(C)no1)c1ccccc1COc1ccccc1C` (stereo not drawn) was run?
**A.** 50%

**Q.** And the Activity (Podosphaera fuliginea [2])?
**A.** 90%

**Q.** What about the Activity (Botrytis cinerea) of the same compound?
**A.** 50%

**Q.** What does the source list for `COC(c1cc(C)no1)c1ccccc1COc1ncc(C(F)(F)F)cc1Cl` (stereo not drawn)?
**A.** Activity [1]: 50%; Activity (Podosphaera fuliginea [2]): 90%; Activity (Botrytis cinerea): 50%

**Q.** With `COC(c1cc(C)no1)c1ccccc1/C=N/N=C(\C)c1ccc(Cl)cc1Cl` (stereo not drawn) as the compound, how does the Activity [1] read?
**A.** 50%

**Q.** What about the Activity (Podosphaera fuliginea [2]) of the same compound?
**A.** 90%

**Q.** With `COC(c1cc(C)no1)c1ccccc1Oc1ncc(C(F)(F)F)cc1Cl` (stereo not drawn) as the compound, how does the Activity [1] read?
**A.** 50%

**Q.** What about the Activity (Botrytis cinerea) of the same compound?
**A.** 50%

**Q.** `COC(c1ccccc1COc1cc(C)ccc1C)C1CC(C)=NO1` (stereo not drawn) was tested. Which Activity [1] did it give?
**A.** 50%

**Q.** And the Activity (Podosphaera fuliginea [3])?
**A.** 90%

**Q.** What about the Activity (Botrytis cinerea) of the same compound?
**A.** 50%

**Q.** Which results are given for `CO/N=C(\c1ccon1)c1ccccc1COc1cc(C)ccc1C`?
**A.** Activity (Podosphaera fuliginea [4]): 0%; Activity (Podosphaera fuliginea [5]): 100%; Activity [6]: 100%; Activity [7]: 100%; Activity [8]: 0%; Activity [9]: 0%; Activity (Podosphaera fuliginea [10]): 0%; Activity (Podosphaera fuliginea [2]): 100%

**Q.** `COC(c1cc(C)no1)c1ccccc1/C=N/N=C(\C)c1ccccc1` (stereo not drawn) was tested. Which Activity [1] did it give?
**A.** 50%

**Q.** What about the Activity (Podosphaera fuliginea [3]) of the same compound?
**A.** 90%

**Q.** `COC(c1cc(C)no1)c1ccccc1/C=N/N=C(\C)c1cccc(Cl)c1` (stereo not drawn) was tested. Which Activity [1] did it give?
**A.** 50%

**Q.** How did the Activity (Podosphaera fuliginea [5]) turn out when `COC(c1cc(C)no1)c1ccccc1/C=N/OC(C)c1ccc(Cl)cc1` (stereo not drawn) was run?
**A.** 90%

**Q.** And the Activity [1]?
**A.** 50%

**Q.** And the Activity (Botrytis cinerea)?
**A.** 50%

**Q.** What does the source list for `COC(c1cc(C)no1)c1ccccc1/C=N/N=C(\C)c1ccc(F)cc1` (stereo not drawn)?
**A.** Activity (Podosphaera fuliginea [11]): 90%; Activity [1]: 50%

**Q.** What does the source list for `COC(c1cc(C)no1)c1ccccc1/C=N/N=C(\C)c1ccc(Cl)c(Cl)c1` (stereo not drawn)?
**A.** Activity (Podosphaera fuliginea [4]): 30%; mortality at 62.5 ppm (Myzus persicae [12]): 3%; mortality at 15.6 ppm (Myzus persicae [13]): 0%; Activity (Podosphaera fuliginea [5]): 100%; Activity [6]: 100%; Activity [7]: 100%; Activity [8]: 30%; Activity [9]: 70%; Activity (Podosphaera fuliginea [10]): 70%; mortality at 250 ppm (Myzus persicae [14]): 3%; Activity (Podosphaera fuliginea [2]): 100%

**Q.** For `COC(c1cc(C)no1)c1ccccc1CO/N=C(\SC)c1ccc(Cl)cc1` (stereo not drawn), which Activity (Podosphaera fuliginea [11]) is on record?
**A.** 90%

**Q.** And the Activity [1]?
**A.** 50%

**Q.** And the Activity (Botrytis cinerea)?
**A.** 50%

**Q.** For `COC(c1cc(C)no1)c1ccccc1Oc1ccccc1` (stereo not drawn), which Activity [1] is on record?
**A.** 50%

**Q.** And the Activity (Botrytis cinerea)?
**A.** 50%

**Q.** `COC(c1cc(C)no1)c1ccccc1CO/N=C(\C)c1ccc(Cl)cc1` (stereo not drawn) was tested. Which Activity [1] did it give?
**A.** 50%

**Q.** And the Activity (Podosphaera fuliginea [2])?
**A.** 90%

**Q.** What about the Activity (Botrytis cinerea) of the same compound?
**A.** 50%

**Q.** How did the Activity (Podosphaera fuliginea [4]) turn out when `COC(c1cc(C)no1)c1ccccc1/C=N/N=C(\C)c1ccc(Br)cc1` (stereo not drawn) was run?
**A.** 50%

**Q.** What about the Activity (Podosphaera fuliginea [5]) of the same compound?
**A.** 100%

**Q.** What about the Activity [6] of the same compound?
**A.** 100%

**Q.** What about the Activity [7] of the same compound?
**A.** 100%

**Q.** What about the Activity [8] of the same compound?
**A.** 50%

**Q.** What about the Activity [9] of the same compound?
**A.** 70%

**Q.** And the Activity (Podosphaera fuliginea [10])?
**A.** 70%

**Q.** And the Activity (Podosphaera fuliginea [2])?
**A.** 100%

**Q.** Which results are given for `COC(c1cc(C)no1)c1ccccc1/C=N/N=C(\C)c1ccc(Cl)cc1` (stereo not drawn)?
**A.** mortality at 62.5 ppm (Myzus persicae [12]): 1%; mortality at 15.6 ppm (Myzus persicae [13]): 0%; Activity (Podosphaera fuliginea [5]): 90%; Activity [9]: 50%; mortality at 250 ppm (Myzus persicae [14]): 2%; Activity (Botrytis cinerea): 50%

**Q.** Which results are given for `COC(c1cc(C)no1)c1ccccc1COc1cc(C)ccc1C` (stereo not drawn)?
**A.** Activity (Podosphaera fuliginea [5]): 90%; Activity [1]: 50%; Activity (Botrytis cinerea): 50%

**Q.** With `COC(C1=NOCC1)c1ccccc1COc1cc(C)ccc1C` (stereo not drawn) as the compound, how does the Activity (Podosphaera fuliginea [11]) read?
**A.** 90%

**Q.** What about the Activity [1] of the same compound?
**A.** 50%

**Q.** What about the Activity (Botrytis cinerea) of the same compound?
**A.** 50%

**Q.** For `COC(c1ccccc1COc1cc(C)ccc1C)c1c(C)noc1C` (stereo not drawn), which Activity [1] is on record?
**A.** 50%

**Q.** And the Activity (Podosphaera fuliginea [3])?
**A.** 90%

**Q.** What about the Activity (Botrytis cinerea) of the same compound?
**A.** 50%

**Q.** Which mortality at 62.5 ppm (Myzus persicae [12]) does the source give for `CC(C)C(C(=O)OC(C#N)c1cccc(Oc2ccccc2)c1)c1ccc(OC(F)F)cc1` (stereo not drawn) [FLUCYTHRINATE] here?
**A.** 3%

**Q.** What about the mortality at 15.6 ppm (Myzus persicae [13]) of the same compound?
**A.** 3%

**Q.** And the mortality at 250 ppm (Myzus persicae [14])?
**A.** 3%

**Q.** Which Activity [1] does the source give for `COC(c1ccon1)c1ccccc1COc1cc(C)ccc1C` (stereo not drawn) here?
**A.** 50%

**Q.** And the Activity (Podosphaera fuliginea [2])?
**A.** 90%

**Q.** What about the Activity (Botrytis cinerea) of the same compound?
**A.** 50%

**Q.** With `COC(c1cc(C)no1)c1ccccc1COc1ccc(C(F)(F)F)cn1` (stereo not drawn) as the compound, how does the Activity (Podosphaera fuliginea [11]) read?
**A.** 90%

**Q.** And the Activity [1]?
**A.** 50%

**Q.** And the Activity (Botrytis cinerea)?
**A.** 50%

**Q.** For `COC(c1cc(C)no1)c1ccccc1/C=N/N=C(\C)c1ccccc1Cl` (stereo not drawn), which Activity [1] is on record?
**A.** 50%

**Q.** And the Activity (Podosphaera fuliginea [3])?
**A.** 90%

**Q.** What does the source list for `CNC(=O)/C(=N/OC)c1ccccc1Oc1ccccc1` [METOMINOSTROBIN]?
**A.** Activity (Podosphaera fuliginea [4]): 0%; Activity (Podosphaera fuliginea [5]): 70%; Activity [6]: 97%; Activity [7]: 70%; Activity [8]: 40%; Activity [9]: 60%; Activity (Podosphaera fuliginea [10]): 40%; Activity (Podosphaera fuliginea [2]): 100%

**Q.** For `COC(c1cc(C)no1)c1ccccc1/C=N/N=C(\C)c1ccc(C)cc1` (stereo not drawn), which Activity [1] is on record?
**A.** 50%

**Q.** And the Activity (Podosphaera fuliginea [2])?
**A.** 90%

**Q.** How did the Activity [1] turn out when `COC(c1cc(C)no1)c1ccccc1Oc1cc(Oc2ccccc2C#N)ncn1` (stereo not drawn) was run?
**A.** 50%

**Q.** What about the Activity (Podosphaera fuliginea [3]) of the same compound?
**A.** 90%

**Q.** And the Activity (Botrytis cinerea)?
**A.** 50%

**Q.** With `COC(c1cc(C)on1)c1ccccc1COc1cc(C)ccc1C` (stereo not drawn) as the compound, how does the Activity [1] read?
**A.** 50%

**Q.** And the Activity (Podosphaera fuliginea [2])?
**A.** 90%

**Q.** What about the Activity (Botrytis cinerea) of the same compound?
**A.** 50%

**Q.** With `COC(c1cc(C)no1)c1ccccc1/C=N/N=C(\C)c1ccc(OC(F)(F)F)cc1` (stereo not drawn) as the compound, how does the Activity (Podosphaera fuliginea [4]) read?
**A.** 0%

**Q.** What about the Activity (Podosphaera fuliginea [5]) of the same compound?
**A.** 100%

**Q.** What about the Activity [6] of the same compound?
**A.** 100%

**Q.** What about the Activity [7] of the same compound?
**A.** 100%

**Q.** What about the Activity [8] of the same compound?
**A.** 50%

**Q.** And the Activity [9]?
**A.** 60%

**Q.** What about the Activity (Podosphaera fuliginea [10]) of the same compound?
**A.** 45%

**Q.** What about the Activity (Podosphaera fuliginea [2]) of the same compound?
**A.** 100%

**Q.** Which results are given for `COC(c1cc(C)no1)c1ccccc1/C=N/N=C(\C)c1ccccc1Br` (stereo not drawn)?
**A.** Activity [1]: 50%; Activity (Podosphaera fuliginea [3]): 90%

**Q.** `COC(c1cc(C)no1)c1ccccc1/C=N/N=C(\C)c1ccc(C(F)(F)F)cc1` (stereo not drawn) was tested. Which mortality at 62.5 ppm (Myzus persicae [12]) did it give?
**A.** 1%

**Q.** What about the mortality at 15.6 ppm (Myzus persicae [13]) of the same compound?
**A.** 0%

**Q.** What about the Activity (Podosphaera fuliginea [5]) of the same compound?
**A.** 90%

**Q.** What about the Activity [9] of the same compound?
**A.** 50%

**Q.** What about the mortality at 250 ppm (Myzus persicae [14]) of the same compound?
**A.** 2%

**Q.** What does the source list for `COC(c1cc(C)no1)c1ccccc1/C=C/c1ccc(Cl)cc1` (stereo not drawn)?
**A.** Activity [1]: 50%; Activity (Podosphaera fuliginea [3]): 90%; Activity (Botrytis cinerea): 50%

**Q.** Which Activity [15] does the source give for `COc1ccc(/C(C)=N/N=C/c2ccccc2C(OC)c2cc(C)no2)cc1` (stereo not drawn) here?
**A.** 50%

**Q.** What about the Activity (Podosphaera fuliginea [11]) of the same compound?
**A.** 90%
